Assay results published in patent US10479786B2, “Protein kinase inhibitors” (Princeton Drug Discovery Inc, priority 2016, dated 2019).

Experiments:
Experiment in all cases: Off-chip Mobility Shift Assay, kinase inhibition
Type in all cases: biochemical
[1] = target: T1, EGFR(d746-750) (Homo sapiens, UniProt P00533, DEL746-750); conditions: at 10 nM; recombinant EGFR(d746-750)
T1 construct: purchased Carna Biosciences, Inc

[2] = target: T2, KIT(D816E) (Homo sapiens, UniProt P10721, D816E); conditions: at 10 nM; recombinant KIT(D816E)
T2 construct: purchased Carna Biosciences, Inc

[3] = target: T3, FGFR3 (Homo sapiens, UniProt P22607); conditions: at 10 nM; recombinant FGFR3
T3 construct: purchased Carna Biosciences, Inc

[4] = target: T4, MAP2K1 (Homo sapiens, UniProt Q02750); conditions: at 10 nM; recombinant MAP2K1
T4 construct: purchased Carna Biosciences, Inc

[5] = target: T5, ALK (Homo sapiens, UniProt Q9UM73); conditions: at 10 nM; recombinant ALK
T5 construct: purchased Carna Biosciences, Inc

[6] = target: T6, CSK (Homo sapiens, UniProt P41240); conditions: at 10 nM; recombinant CSK
T6 construct: purchased Carna Biosciences, Inc

[7] = target: T7, ROCK1 (Homo sapiens, UniProt Q13464); conditions: at 10 nM; recombinant ROCK1
T7 construct: purchased Carna Biosciences, Inc
T7 sequence (Q13464 whole entry): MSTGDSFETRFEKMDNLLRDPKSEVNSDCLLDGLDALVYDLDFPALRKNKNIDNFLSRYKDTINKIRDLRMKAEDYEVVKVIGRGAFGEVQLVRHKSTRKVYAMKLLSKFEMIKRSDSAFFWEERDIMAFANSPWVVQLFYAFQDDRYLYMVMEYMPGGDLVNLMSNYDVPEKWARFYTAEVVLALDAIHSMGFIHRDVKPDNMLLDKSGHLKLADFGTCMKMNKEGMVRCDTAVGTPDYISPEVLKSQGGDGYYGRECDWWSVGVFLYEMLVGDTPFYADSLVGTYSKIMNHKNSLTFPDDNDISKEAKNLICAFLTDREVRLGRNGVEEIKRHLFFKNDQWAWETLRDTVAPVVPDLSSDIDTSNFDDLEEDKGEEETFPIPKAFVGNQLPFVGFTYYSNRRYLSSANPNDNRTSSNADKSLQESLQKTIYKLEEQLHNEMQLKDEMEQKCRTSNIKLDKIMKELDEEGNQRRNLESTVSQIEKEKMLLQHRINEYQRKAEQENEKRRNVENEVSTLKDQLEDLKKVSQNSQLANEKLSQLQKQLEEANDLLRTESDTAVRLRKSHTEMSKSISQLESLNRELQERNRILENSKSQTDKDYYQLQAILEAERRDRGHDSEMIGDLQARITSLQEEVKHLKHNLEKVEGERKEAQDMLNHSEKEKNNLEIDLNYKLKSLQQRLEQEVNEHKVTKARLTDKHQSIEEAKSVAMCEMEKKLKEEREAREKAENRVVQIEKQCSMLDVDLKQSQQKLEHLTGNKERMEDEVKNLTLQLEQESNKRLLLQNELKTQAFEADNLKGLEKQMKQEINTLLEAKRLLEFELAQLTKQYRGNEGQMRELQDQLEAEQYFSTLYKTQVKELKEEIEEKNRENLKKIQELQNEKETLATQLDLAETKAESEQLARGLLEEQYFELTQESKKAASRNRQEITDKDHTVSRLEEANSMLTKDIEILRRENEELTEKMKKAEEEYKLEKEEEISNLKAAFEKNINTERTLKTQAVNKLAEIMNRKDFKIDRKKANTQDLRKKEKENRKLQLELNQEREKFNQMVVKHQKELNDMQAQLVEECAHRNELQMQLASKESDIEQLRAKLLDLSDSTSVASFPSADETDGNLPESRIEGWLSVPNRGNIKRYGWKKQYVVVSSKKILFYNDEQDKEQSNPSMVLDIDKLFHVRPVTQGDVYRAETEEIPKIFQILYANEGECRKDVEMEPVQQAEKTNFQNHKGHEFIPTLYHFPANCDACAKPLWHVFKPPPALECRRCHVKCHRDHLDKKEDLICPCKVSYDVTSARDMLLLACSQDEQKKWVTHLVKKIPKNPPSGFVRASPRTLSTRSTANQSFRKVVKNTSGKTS

[8] = target: T8, BRAF(V600E) (Homo sapiens, UniProt P15056, V600E); conditions: at 10 nM; recombinant BRAF(V600E)
T8 construct: purchased Carna Biosciences, Inc

[9] = target: T9, EGFR(d746-750/T790M) (Homo sapiens, UniProt P00533, DEL746-750/T790M); conditions: at 10 nM; recombinant EGFR(d746-750/T790M)
T9 construct: purchased Carna Biosciences, Inc

[10] = target: T10, EGFR(T790M/L858R) (Homo sapiens, UniProt P00533, L858R/T790M); conditions: at 10 nM; recombinant EGFR(T790M/L858R)
T10 construct: purchased Carna Biosciences, Inc

[11] = target: T11, KIT(D816V) (Homo sapiens, UniProt P10721, D816V); conditions: at 10 nM; recombinant KIT(D816V)
T11 construct: purchased Carna Biosciences, Inc

[12] = target: T12, EGFR(L858R) (Homo sapiens, UniProt P00533, L858R); conditions: at 10 nM; recombinant EGFR(L858R)
T12 construct: purchased Carna Biosciences, Inc

[13] = target: T13, JAK2 (Homo sapiens, UniProt O60674); conditions: at 10 nM; recombinant JAK2
T13 construct: purchased Carna Biosciences, Inc

[14] = target: T14, FGFR1 (Homo sapiens, UniProt P11362); conditions: at 10 nM; recombinant FGFR1
T14 construct: purchased Carna Biosciences, Inc

[15] = target: T15, PDGFRα(D842V) (Homo sapiens, UniProt P16234, D842V); conditions: at 10 nM; recombinant PDGFRα(D842V)
T15 construct: purchased Carna Biosciences, Inc

[16] = target: T16, SRM (Homo sapiens, UniProt Q9H3Y6); conditions: at 10 nM; recombinant SRM
T16 construct: purchased Carna Biosciences, Inc
T16 sequence (Q9H3Y6 whole entry): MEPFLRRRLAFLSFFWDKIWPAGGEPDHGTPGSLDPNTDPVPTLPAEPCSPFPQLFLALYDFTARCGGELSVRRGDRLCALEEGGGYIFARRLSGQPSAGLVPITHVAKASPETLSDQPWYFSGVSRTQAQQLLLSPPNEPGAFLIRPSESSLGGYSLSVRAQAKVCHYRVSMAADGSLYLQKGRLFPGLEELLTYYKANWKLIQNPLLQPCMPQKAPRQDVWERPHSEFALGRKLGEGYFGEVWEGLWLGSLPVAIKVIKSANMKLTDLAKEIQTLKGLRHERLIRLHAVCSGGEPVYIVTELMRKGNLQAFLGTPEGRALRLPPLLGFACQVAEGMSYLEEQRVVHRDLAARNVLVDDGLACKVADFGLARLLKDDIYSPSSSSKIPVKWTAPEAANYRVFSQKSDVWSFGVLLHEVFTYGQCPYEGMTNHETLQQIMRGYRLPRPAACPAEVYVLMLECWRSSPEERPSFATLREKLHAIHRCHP

[17] = target: T17, KIT(D816Y) (Homo sapiens, UniProt P10721, D816Y); conditions: at 10 nM; recombinant KIT(D816Y)
T17 construct: purchased Carna Biosciences, Inc

[18] = target: T18, Erk1 (Homo sapiens, UniProt P27361); conditions: at 10 nM; recombinant Erk1
T18 construct: purchased Carna Biosciences, Inc

[19] = target: T19, skMLCK (Homo sapiens, UniProt Q9H1R3); conditions: at 10 nM; recombinant skMLCK
T19 construct: purchased Carna Biosciences, Inc

[20] = target: T20, MAP2K2 (Homo sapiens, UniProt P36507); conditions: at 10 nM; recombinant MAP2K2
T20 construct: purchased Carna Biosciences, Inc

[21] = target: T21, MET (Homo sapiens, UniProt P08581); conditions: at 10 nM; recombinant MET
T21 construct: purchased Carna Biosciences, Inc

[22] = target: T22, KDR (Homo sapiens, UniProt P35968); conditions: at 10 nM; recombinant KDR
T22 construct: purchased Carna Biosciences, Inc

[23] = target: T23, WNK3 (Homo sapiens, UniProt Q9BYP7); conditions: at 10 nM; recombinant WNK3
T23 construct: purchased Carna Biosciences, Inc

[24] = target: T24, JAK1 (Homo sapiens, UniProt P23458); conditions: at 10 nM; recombinant JAK1
T24 construct: purchased Carna Biosciences, Inc
T24 sequence (P23458 whole entry): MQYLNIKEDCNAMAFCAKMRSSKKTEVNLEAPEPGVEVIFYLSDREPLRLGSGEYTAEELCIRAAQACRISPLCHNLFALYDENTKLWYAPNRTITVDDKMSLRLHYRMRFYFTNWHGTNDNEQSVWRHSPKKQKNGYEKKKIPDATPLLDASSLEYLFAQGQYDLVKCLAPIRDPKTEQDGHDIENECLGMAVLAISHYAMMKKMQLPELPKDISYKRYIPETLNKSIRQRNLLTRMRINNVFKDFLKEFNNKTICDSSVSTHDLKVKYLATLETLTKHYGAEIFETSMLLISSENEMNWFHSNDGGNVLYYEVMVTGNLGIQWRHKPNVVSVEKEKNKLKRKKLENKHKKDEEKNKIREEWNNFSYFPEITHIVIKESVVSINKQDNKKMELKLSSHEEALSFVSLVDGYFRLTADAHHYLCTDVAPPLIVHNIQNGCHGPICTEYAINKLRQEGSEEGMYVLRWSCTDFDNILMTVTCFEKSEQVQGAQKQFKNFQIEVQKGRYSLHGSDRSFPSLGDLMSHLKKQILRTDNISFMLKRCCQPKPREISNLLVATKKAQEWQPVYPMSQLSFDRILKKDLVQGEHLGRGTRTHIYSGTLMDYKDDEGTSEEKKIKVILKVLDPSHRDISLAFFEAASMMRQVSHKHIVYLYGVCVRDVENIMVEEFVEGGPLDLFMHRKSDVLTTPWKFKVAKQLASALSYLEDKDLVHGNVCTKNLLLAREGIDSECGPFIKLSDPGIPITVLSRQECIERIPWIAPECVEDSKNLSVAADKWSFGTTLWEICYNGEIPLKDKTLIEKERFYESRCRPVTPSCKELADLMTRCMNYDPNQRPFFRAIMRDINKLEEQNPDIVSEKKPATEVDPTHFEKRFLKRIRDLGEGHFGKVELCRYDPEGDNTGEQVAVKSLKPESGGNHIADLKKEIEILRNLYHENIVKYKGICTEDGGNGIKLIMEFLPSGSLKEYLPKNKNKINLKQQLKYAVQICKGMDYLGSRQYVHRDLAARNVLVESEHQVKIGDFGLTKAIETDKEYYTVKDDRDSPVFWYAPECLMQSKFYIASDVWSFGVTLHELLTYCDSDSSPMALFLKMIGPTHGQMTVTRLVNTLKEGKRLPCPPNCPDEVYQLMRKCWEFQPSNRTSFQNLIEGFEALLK

[25] = target: T25, DDR1 (Homo sapiens, UniProt Q08345); conditions: at 10 nM; recombinant DDR1
T25 construct: purchased Carna Biosciences, Inc

[26] = target: T26, KIT(T670I) (Homo sapiens, UniProt P10721, T670I); conditions: at 10 nM; recombinant KIT(T670I)
T26 construct: purchased Carna Biosciences, Inc

[27] = target: T27, MNK1 (Homo sapiens, UniProt Q9BUB5); conditions: at 10 nM; recombinant MNK1
T27 construct: purchased Carna Biosciences, Inc

[28] = target: T28, JAK3 (Homo sapiens, UniProt P52333); conditions: at 10 nM; recombinant JAK3
T28 construct: purchased Carna Biosciences, Inc
T28 sequence (P52333 whole entry): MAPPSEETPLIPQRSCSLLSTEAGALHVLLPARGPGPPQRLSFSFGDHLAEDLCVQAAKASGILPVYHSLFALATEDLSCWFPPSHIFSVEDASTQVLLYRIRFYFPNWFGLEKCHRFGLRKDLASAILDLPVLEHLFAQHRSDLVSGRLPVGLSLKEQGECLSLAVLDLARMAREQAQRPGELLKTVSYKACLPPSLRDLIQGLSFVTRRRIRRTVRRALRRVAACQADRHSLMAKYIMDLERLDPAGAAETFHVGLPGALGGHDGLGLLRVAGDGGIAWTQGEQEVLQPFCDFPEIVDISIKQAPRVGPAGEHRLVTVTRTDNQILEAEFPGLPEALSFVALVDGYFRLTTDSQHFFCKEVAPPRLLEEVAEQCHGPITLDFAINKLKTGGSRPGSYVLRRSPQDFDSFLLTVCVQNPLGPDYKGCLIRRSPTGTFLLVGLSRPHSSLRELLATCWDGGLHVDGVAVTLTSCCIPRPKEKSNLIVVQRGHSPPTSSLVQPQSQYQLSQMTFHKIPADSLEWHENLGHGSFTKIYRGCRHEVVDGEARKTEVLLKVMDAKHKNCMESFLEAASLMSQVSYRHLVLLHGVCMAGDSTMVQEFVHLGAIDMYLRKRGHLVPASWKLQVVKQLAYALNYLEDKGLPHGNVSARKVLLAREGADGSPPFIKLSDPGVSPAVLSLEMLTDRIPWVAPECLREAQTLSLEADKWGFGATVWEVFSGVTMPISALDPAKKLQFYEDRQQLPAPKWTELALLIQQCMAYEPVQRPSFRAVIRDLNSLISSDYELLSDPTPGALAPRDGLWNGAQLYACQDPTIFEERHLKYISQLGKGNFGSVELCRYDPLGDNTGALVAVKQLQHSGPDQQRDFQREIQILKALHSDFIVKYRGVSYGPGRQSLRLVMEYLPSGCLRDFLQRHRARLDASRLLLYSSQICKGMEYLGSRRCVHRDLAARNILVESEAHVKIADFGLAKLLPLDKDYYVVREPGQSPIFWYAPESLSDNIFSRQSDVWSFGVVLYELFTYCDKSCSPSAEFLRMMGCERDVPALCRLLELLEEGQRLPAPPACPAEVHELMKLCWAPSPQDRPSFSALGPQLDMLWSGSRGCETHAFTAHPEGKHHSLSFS

[29] = target: T29, BRK (Homo sapiens, UniProt Q13882); conditions: at 10 nM; recombinant BRK
T29 construct: purchased Carna Biosciences, Inc

[30] = target: T30, FGFR2 (Homo sapiens, UniProt P21802); conditions: at 10 nM; recombinant FGFR2
T30 construct: purchased Carna Biosciences, Inc
T30 sequence (P21802 22-821): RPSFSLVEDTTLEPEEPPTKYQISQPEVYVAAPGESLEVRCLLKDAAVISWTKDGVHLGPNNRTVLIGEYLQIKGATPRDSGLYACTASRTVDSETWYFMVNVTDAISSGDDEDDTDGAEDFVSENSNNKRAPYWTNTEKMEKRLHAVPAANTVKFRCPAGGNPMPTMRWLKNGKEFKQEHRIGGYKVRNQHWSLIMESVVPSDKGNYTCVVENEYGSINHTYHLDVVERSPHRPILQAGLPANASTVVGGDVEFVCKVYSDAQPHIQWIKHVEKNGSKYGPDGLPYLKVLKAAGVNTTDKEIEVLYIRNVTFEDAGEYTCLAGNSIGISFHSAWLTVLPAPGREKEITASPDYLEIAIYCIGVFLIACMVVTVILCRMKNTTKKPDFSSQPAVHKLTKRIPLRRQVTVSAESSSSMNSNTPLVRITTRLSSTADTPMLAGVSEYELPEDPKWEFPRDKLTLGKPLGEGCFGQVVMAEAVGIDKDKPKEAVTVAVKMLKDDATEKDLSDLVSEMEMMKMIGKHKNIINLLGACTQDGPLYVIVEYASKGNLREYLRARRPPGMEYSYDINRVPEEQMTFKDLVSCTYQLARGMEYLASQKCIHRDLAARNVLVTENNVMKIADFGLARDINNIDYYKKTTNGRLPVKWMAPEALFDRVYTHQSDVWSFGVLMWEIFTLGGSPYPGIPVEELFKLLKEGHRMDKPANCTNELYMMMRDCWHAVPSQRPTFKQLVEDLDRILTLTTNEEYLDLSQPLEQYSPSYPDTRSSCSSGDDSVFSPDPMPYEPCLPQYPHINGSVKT

[31] = target: T31, FLT1 (Homo sapiens, UniProt P17948); conditions: at 10 nM; recombinant FLT1
T31 construct: purchased Carna Biosciences, Inc

[32] = target: T32, ITK (Homo sapiens, UniProt Q08881); conditions: at 1 nM; recombinant ITK
T32 construct: purchased Carna Biosciences, Inc

[33] = target: T33, LYNb (Homo sapiens, UniProt P07948); conditions: at 1 nM; recombinant LYNb
T33 construct: purchased Carna Biosciences, Inc

[2H]c1cc(C)c(NC(=O)c2cnc(Nc3cc(N4CCCCC4)nc(C)n3)s2)c(Cl)c1 [Compound I, N-(2-chloro-4-deuterio-6-methyl-phenyl)-2-[[2-methyl-6-(1-piperidyl)pyrimidin-4-yl]amino]thiazole-5-carboxamide]
< 50%: inhibition at 0.01 µM [1] | inhibition at 0.01 µM [2] | inhibition at 0.01 µM [3] | inhibition at 0.01 µM [4] | inhibition at 0.01 µM [5] | inhibition at 0.01 µM [7] | inhibition at 0.01 µM [8] | inhibition at 0.01 µM [9] | inhibition at 0.01 µM [10] | inhibition at 0.01 µM [12] | inhibition at 0.01 µM [13] | inhibition at 0.01 µM [14] | inhibition at 0.01 µM [15] | inhibition at 0.01 µM [18] | inhibition at 0.01 µM [19] | inhibition at 0.01 µM [20] | inhibition at 0.01 µM [21] | inhibition at 0.01 µM [22] | inhibition at 0.01 µM [23] | inhibition at 0.01 µM [24] | inhibition at 0.01 µM [25] | inhibition at 0.01 µM [26] | inhibition at 0.01 µM [27] | inhibition at 0.01 µM [28] | inhibition at 0.01 µM [30] | inhibition at 0.01 µM [31]
> 50%: inhibition at 0.01 µM [6] | inhibition at 0.01 µM [11] | inhibition at 0.01 µM [16] | inhibition at 0.01 µM [17] | inhibition at 0.01 µM [29]

[2H]c1cc(C)c(NC(=O)c2cnc(Nc3cc(N4CCC(O)CC4)nc(C)n3)s2)c(Cl)c1 [Compound II, N-(2-chloro-4-deuterio-6-methyl-phenyl)-2-[[6-(4-hydroxy-1-piperidyl)-2-methyl-pyrimidin-4-yl]amino]thiazole-5-carboxamide]
< 50%: inhibition at 0.001 µM [32]
> 50%: inhibition at 0.001 µM [33]
